Results as given in US6737383B1, “Herbicidal oxadiazolidines” (priority 1999, dated 2004).

Assays:
bedstraw = test: Test B pre/postemergence bedstraw; assay type: in vivo, Galium aparine
Outline: (§1)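 Herbicidal effect was estimated by eye on a ten-point control scale after plants spent twelve to sixteen days in a greenhouse following soil or foliar treatment. Foliar sprays targeted plants at one to four leaves; all doses were formulated in a non-phytotoxic solvent with surfactant.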

blackgrass = test: Test B pre/postemergence blackgrass; assay type: in vivo, Alopecurus myosuroides
Outline: as §1

surinam grass = test: Test B pre/postemergence surinam grass; assay type: in vivo, Brachiaria decumbens
Outline: as §1

cocklebur = test: Test B pre/postemergence cocklebur; assay type: in vivo, Xanthium strumarium
Outline: as §1

corn = test: Test B pre/postemergence corn; assay type: in vivo, Zea mays
Outline: as §1

giant foxtail = test: Test B pre/postemergence giant foxtail; assay type: in vivo, Setaria faberii
Outline: as §1

morningglory = test: Test B pre/postemergence morningglory; assay type: in vivo, Ipomoea hederacea
Outline: as §1

pigweed = test: Test B pre/postemergence pigweed; assay type: in vivo, Amaranthus retroflexus
Outline: as §1

rape = test: Test B pre/postemergence rape; assay type: in vivo, Brassica napus
Outline: as §1

sugar beet = test: Test B pre/postemergence sugar beet; assay type: in vivo, Beta vulgaris
Outline: as §1

velvetleaf = test: Test B pre/postemergence velvetleaf; assay type: in vivo, Abutilon theophrasti
Outline: as §1

purple nutsedge = test: Test B pre/postemergence purple nutsedge; assay type: in vivo, Cyperus rotundus
Outline: as §1

rice = test: Test B flood test rice; assay type: in vivo, Oryza sativa
Outline: (§2)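 Each value is a visual injury score relative to controls, with 10 meaning complete control and 0 no effect. Evaluation took place twelve to sixteen days after the 2-leaf-stage plants were treated and kept in the greenhouse.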

duck salad = test: Test B flood test duck salad; assay type: in vivo, Heteranthera limosa
Outline: as §2

bamyardgrass = test: Test B flood test barnyardgrass; assay type: in vivo, Echinochloa crus-galli
Outline: as §2

[1] = Postemergence, Rate 125 g/ha, scale of 0 to 10 where 0 is no effect and 10 is complete control
[2] = Preemergence, Rate 125 g/ha, 0 is no effect, 10 is complete control
[3] = Preemergence, Rate 250 g/ha, scale 0 to 10, 0 is no effect, 10 is complete control
[4] = Preemergence, Rate 500 g/ha, scale 0 to 10 (0 no effect, 10 complete control)
[5] = Rate 62 g/ha, Postemergence, scale of 0 to 10 where 0 is no effect and 10 is complete control
[6] = Rate 250 g/ha, Postemergence, scale 0 to 10, 0 is no effect, 10 is complete control
[7] = Preemergence, Rate 62 g/ha, scale 0 to 10 (0 no effect, 10 complete control)
[8] = Rate 500 g/ha, Postemergence, scale 0 to 10
[9] = Postemergence (flood test species), Rate 125 g/ha, scale of 0 to 10 where 0 is no effect and 10 is complete control
[10] = Rate 62 g/ha, Postemergence section, flood test species, scale of 0 to 10 where 0 is no effect and 10 is complete control
[11] = Rate 250 g/ha, Postemergence (flood test), scale 0 to 10, 0 is no effect, 10 is complete control
[12] = Rate 500 g/ha, listed under Postemergence (flood test species), scale 0 to 10

For `CC(C)c1noc(C(C)C)c1-n1c(=O)on(C(=O)N(c2ccc(F)cc2)C(C)C)c1=O` [Compound 135], the “Bedstraw plant response rating” value (bedstraw; [1]) was 0, the “Bedstraw plant response rating (0 to 10 scale)” value (bedstraw; [2]) was 0 and the “Bedstraw plant response rating” value (bedstraw; [3]) was 0. The “Bedstraw plant response rating” value (bedstraw; [4]) was 4, the “Bedstraw plant response rating” value (bedstraw; [5]) was 0 and the “Plant response rating, Bedstraw” value (bedstraw; [6]) was 2. For the same molecule, the “Blackgrass plant response rating” value (blackgrass; [1]) was 0, the “Blackgrass plant response rating” value (blackgrass; [7]) was 0 and the “Blackgrass plant response rating (0 to 10 scale)” value (blackgrass; [2]) was 0. The “Blackgrass plant response rating” value (blackgrass; [3]) was 0, the “Blackgrass plant response rating” value (blackgrass; [4]) was 4 and the “Blackgrass plant response rating” value (blackgrass; [5]) was 0. The “Plant response rating, Blackgrass” value (blackgrass; [6]) was 0, the “Blackgrass plant response rating” value (blackgrass; [8]) was 0 and the “B. signalgrass plant response rating” value (surinam grass; [1]) was 0. For the same molecule, the “B. signalgrass plant response rating” value (surinam grass; [7]) was 0, the “B. signalgrass plant response rating (0 to 10 scale)” value (surinam grass; [2]) was 0 and the “B. signalgrass plant response rating” value (surinam grass; [3]) was 3. The “B. signalgrass plant response rating” value (surinam grass; [4]) was 4, the “B. signalgrass plant response rating” value (surinam grass; [5]) was 0 and the “Plant response rating, B. signalgrass” value (surinam grass; [6]) was 0. The “B. signalgrass plant response rating” value (surinam grass; Rate 500 g/ha, Postemergence, scale of 0 to 10 where 0 is no effect and 10 is complete control) was 0, the “Cocklebur plant response rating” value (cocklebur; [1]) was 0 and the “Cocklebur plant response rating” value (cocklebur; [7]) was 0. For the same molecule, the “Cocklebur plant response rating (0 to 10 scale)” value (cocklebur; [2]) was 0, the “Cocklebur plant response rating” value (cocklebur; [3]) was 0 and the “Cocklebur plant response rating” value (cocklebur; [4]) was 0. The “Cocklebur plant response rating” value (cocklebur; [5]) was 0, the “Plant response rating, Cocklebur” value (cocklebur; [6]) was 0 and the “Cocklebur plant response rating” value (cocklebur; [8]) was 0. The “Corn plant response rating” value (corn; [1]) was 0, the “Corn plant response rating” value (corn; [7]) was 0 and the “Corn plant response rating (0 to 10 scale)” value (corn; [2]) was 0. The “Corn plant response rating” value (corn; [3]) was 0, the “Corn plant response rating” value (corn; [4]) was 0 and the “Corn plant response rating” value (corn; [5]) was 0. The “Plant response rating, Corn” value (corn; [6]) was 0, the “Corn plant response rating” value (corn; [8]) was 0 and the “Giant foxtail plant response rating” value (giant foxtail; [1]) was 0. The “Giant foxtail plant response rating” value (giant foxtail; [7]) was 0, the “Giant foxtail plant response rating (0 to 10 scale)” value (giant foxtail; [2]) was 0 and the “Giant foxtail plant response rating” value (giant foxtail; [3]) was 0. The “Giant foxtail plant response rating” value (giant foxtail; [5]) was 0, the “Plant response rating, Giant foxtail” value (giant foxtail; [6]) was 0 and the “Giant foxtail plant response rating” value (giant foxtail; [8]) was 0. The “Morningglory plant response rating” value (morningglory; [1]) was 1, the “Morningglory plant response rating” value (morningglory; [7]) was 0 and the “Morningglory plant response rating (0 to 10 scale)” value (morningglory; [2]) was 0. For the same molecule, the “Morningglory plant response rating” value (morningglory; [3]) was 0, the “Morningglory plant response rating” value (morningglory; [4]) was 0 and the “Morningglory plant response rating” value (morningglory; [5]) was 0. For the same molecule, the “Plant response rating, Morningglory” value (morningglory; [6]) was 1, the “Morningglory plant response rating” value (morningglory; [8]) was 1 and the “Redroot pigweed plant response rating” value (pigweed; [1]) was 0. For the same molecule, the “Redroot pigweed plant response rating (0 to 10 scale)” value (pigweed; [2]) was 3, the “Redroot pigweed plant response rating” value (pigweed; [3]) was 4 and the “Redroot pigweed plant response rating” value (pigweed; [4]) was 4. For the same molecule, the “Redroot pigweed plant response rating” value (pigweed; [5]) was 0, the “Plant response rating, Redroot pigweed” value (pigweed; [6]) was 0 and the “Redroot pigweed plant response rating” value (pigweed; [8]) was 0. The “Rape plant response rating” value (rape; [1]) was 0, the “Rape plant response rating” value (rape; [7]) was 0 and the “Rape plant response rating (0 to 10 scale)” value (rape; [2]) was 0. For the same molecule, the “Rape plant response rating” value (rape; [3]) was 0, the “Rape plant response rating” value (rape; [4]) was 0 and the “Rape plant response rating” value (rape; [5]) was 0. The “Plant response rating, Rape” value (rape; [6]) was 0, the “Rape plant response rating” value (rape; [8]) was 0 and the “Sugarbeets plant response rating” value (sugar beet; [1]) was 0. For the same molecule, the “Sugarbeets plant response rating” value (sugar beet; [7]) was 0, the “Sugarbeets plant response rating (0 to 10 scale)” value (sugar beet; [2]) was 0 and the “Sugarbeets plant response rating” value (sugar beet; [3]) was 0. For the same molecule, the “Sugarbeets plant response rating” value (sugar beet; [4]) was 0, the “Sugarbeets plant response rating” value (sugar beet; [5]) was 0 and the “Plant response rating, Sugarbeets” value (sugar beet; [6]) was 0. For the same molecule, the “Sugarbeets plant response rating” value (sugar beet; [8]) was 0, the “Velvetleaf plant response rating” value (velvetleaf; [1]) was 0 and the “Velvetleaf plant response rating” value (velvetleaf; [7]) was 0. For the same molecule, the “Velvetleaf plant response rating (0 to 10 scale)” value (velvetleaf; [2]) was 0, the “Velvetleaf plant response rating” value (velvetleaf; [3]) was 0 and the “Velvetleaf plant response rating” value (velvetleaf; [4]) was 0. For the same molecule, the “Velvetleaf plant response rating” value (velvetleaf; [5]) was 0, the “Plant response rating, Velvetleaf” value (velvetleaf; [6]) was 0 and the “Velvetleaf plant response rating” value (velvetleaf; [8]) was 0. For the same molecule, the “Nutsedge plant response rating” value (purple nutsedge; [1]) was 0, the “Nutsedge plant response rating” value (purple nutsedge; [7]) was 0 and the “Nutsedge plant response rating (0 to 10 scale)” value (purple nutsedge; [2]) was 0. For the same molecule, the “Nutsedge plant response rating” value (purple nutsedge; [3]) was 0, the “Nutsedge plant response rating” value (purple nutsedge; [4]) was 0 and the “Nutsedge plant response rating” value (purple nutsedge; [5]) was 0. The “Plant response rating, Nutsedge” value (purple nutsedge; [6]) was 0, the “Nutsedge plant response rating” value (purple nutsedge; [8]) was 0 and the “Rice plant response rating” value (rice; [9]) was 0. The “Rice plant response rating” value (rice; [10]) was 0, the “Plant response rating, Rice” value (rice; [11]) was 0 and the “Rice plant response rating” value (rice; [12]) was 0. For the same molecule, the “Ducksalad plant response rating” value (duck salad; [9]) was 0, the “Ducksalad plant response rating” value (duck salad; [10]) was 0 and the “Plant response rating, Ducksalad” value (duck salad; [11]) was 0. The “Ducksalad plant response rating” value (duck salad; [12]) was 0, the “Barnyardgrass plant response rating” value (bamyardgrass; [9]) was 0 and the “Barnyardgrass plant response rating” value (bamyardgrass; [10]) was 0. For the same molecule, the “Plant response rating, Barnyardgrass” value (bamyardgrass; [11]) was 0 and the “Barnyardgrass plant response rating” value (bamyardgrass; Rate 500 g/ha, listed under Postemergence (flood test species), scale 0 to 10, 0 no effect, 10 complete control) was 0.
